Data reported in US9340577B2, “HLA binding motifs and peptides and their uses” (priority 1992, dated 2016).
pIC50: −log10 of the molar value. Like-named read-outs stand apart in the source and are kept apart here. No end group written: not given here.

Columns and labels:
Assay in all cases: biochemical
[1] = target: DRB1*1201 (Homo sapiens, UniProt P01903+P01911, A100R/A169T/D57E/D86V/F55L/H45Y/K41T/L162R/M171V/P40S/Q125H/Q178H/Q39Y/Q99D/R42G/S66L/T262R/V114A/V67L/W38E/Y59H/Y61H/Y89S); format: binding
[2] = target: DR1 (DRB1*0101) (Homo sapiens, UniProt P01903+P01911, A100R/D57E/F55L/F60I/F76Y/I96L/L162R/M171V/P40L/Q125E/R42F/V115G/Y59C); format: binding
[3] = target: DR4w4 (DRB1*0401) (Homo sapiens, UniProt P01903+P01911, A100K/A169T/F76Y/I96L/K127E/L162R/M171V/N62H/P40V/Q125Y/R42H/S133A/S149N/S66Y/V115G/V209L/W38E); format: binding
[4] = target: DR7 (DRB1*0701) (Homo sapiens, UniProt P01903+P01911, A100R/A102G/A103Q/D57E/D86V/E43K/F76Y/K127E/L162R/M171V/P40G/Q125H/Q99D/R33Q/R42Y/R54Q/S133A/S66F/T210M/V115G/Y107V/Y59L/Y89S); format: binding
[5] = target: DRB1*0405 (Homo sapiens, UniProt P01903+P01911, A100R/A169T/D86S/F76Y/I96L/K127E/L162R/M171V/N62H/P40V/Q125Y/R42H/S133A/S149N/S66Y/V115G/V209L/W38E); format: binding
[6] = target: DRB1*0802 (Homo sapiens, UniProt P01903+P01911, A100R/A103L/A169T/F76Y/H45Y/I96F/K41T/L162R/M171V/P40S/Q125H/Q178H/Q39Y/Q99D/R218S/R42G/S66Y/V115G/W38E); format: binding
[7] = target: DRB1*0901 (Homo sapiens, UniProt P01903+P01911, A100R/A103E/D57H/D86V/F55Y/F60I/F76Y/I96F/K127E/L162R/M171V/P40D/Q125H/Q99R/R33Q/R42F/S133A/S66N/T210M/V115G/W38K/Y107V/Y59G/Y89S); format: binding
[8] = target: DRB1*1302 (Homo sapiens, UniProt P01903+P01911, A100E/A169T/K41T/L162R/M171V/P40S/Q125H/Q178H/Q39Y/Q99D/R42S/S66N/T262R/V115G/W38E/Y61H); format: binding
[9] = target: DRB1*1501 (Homo sapiens, UniProt P01903+P01911); format: binding
[10] = target: DRB4*0101 (Homo sapiens, UniProt P01903+P13762, G164S); format: binding
[11] = target: DRB1*1101 (Homo sapiens, UniProt P01903+P01911, A100R/A169T/A87E/I96F/K41T/L162R/M171V/P40S/Q125H/Q178H/Q39Y/Q99D/R42S/S66Y/T262R/V115G/W38E)
[12] = target: DRB5*0101 (Homo sapiens, UniProt P01903+Q30154)

DRB1*1101, sequence (P01903 26-254 limits assumed, other chains not shown): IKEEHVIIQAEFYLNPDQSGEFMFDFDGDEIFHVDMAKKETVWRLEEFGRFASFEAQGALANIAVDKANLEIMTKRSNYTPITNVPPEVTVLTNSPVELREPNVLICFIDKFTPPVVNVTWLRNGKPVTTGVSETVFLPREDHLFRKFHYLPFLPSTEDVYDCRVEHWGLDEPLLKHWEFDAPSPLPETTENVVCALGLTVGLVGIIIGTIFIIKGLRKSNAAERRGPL
DRB1*1302, sequence (P01903 26-254 limits assumed, other chains not shown): as above

Molecule	pIC50 [1]	pIC50 [2]	pIC50 [3]	pIC50 [4]	pIC50 [5]	pIC50 [6]	pIC50 [7]	pIC50 [8]	pIC50 [9]	pIC50 [10]	pIC50 ([11]; Binding affinity DRB1 *1101)	pIC50 ([12]; Binding affinity DRB5 *0101)	pIC50 [11]	pIC50 [12]
CC(C)C[C@H](NC(=O)[C@H](CCC(=O)O)NC(=O)[C@H](CCCCN)NC(=O)[C@H](C)N)C(=O)N[C@@H](CCCCN)C(=O)N[C@@H](Cc1ccccc1)C(=O)N[C@H](C(=O)N[C@H](C(=O)N[C@@H](CC(C)C)C(=O)N[C@H](C(=O)N[C@@H](Cc1ccccc1)C(=O)N[C@@H](CCCNC(=N)N)C(=O)N[C@@H](Cc1c[nH]cn1)C(=O)NCC(=O)N[C@@H](CC(=O)O)C(=O)O)C(C)C)[C@@H](C)O)C(C)C [68,0025]	6.16	–	–	–	–	–	–	–	–	–	–	–	–	–
CC[C@H](C)[C@H](N)C(=O)N[C@@H](CC(C)C)C(=O)N[C@@H](CC(C)C)C(=O)N[C@@H](Cc1c[nH]c2ccccc12)C(=O)N[C@@H](CCC(N)=O)C(=O)N1CCC[C@H]1C(=O)N[C@H](C(=O)N1CCC[C@H]1C(=O)N[C@H](C(=O)N[C@@H](Cc1c[nH]cn1)C(=O)N[C@H](C(=O)N[C@H](C(=O)N1CCC[C@H]1C(=O)N[C@@H](CC(C)C)C(=O)N[C@@H](CO)C(=O)O)C(C)C)[C@@H](C)O)C(C)C)[C@@H](C)CC [68,0038]	5.14	–	–	–	–	–	–	–	–	–	–	–	–	–
CC[C@H](C)[C@H](NC(=O)[C@H](CCCCN)NC(=O)[C@H](C)NC(=O)[C@@H]1CCCN1C(=O)[C@H](CCC(=O)O)NC(=O)[C@H](CO)NC(=O)[C@H](CC(C)C)NC(=O)[C@H](CCCNC(=N)N)NC(=O)[C@H](CC(C)C)NC(=O)[C@H](CC(C)C)NC(=O)[C@H](CCSC)NC(=O)[C@H](CC(C)C)NC(=O)[C@H](CC(=O)O)NC(=O)[C@@H](N)Cc1c[nH]cn1)C(=O)N[C@H](C(=O)O)[C@@H](C)O [Peptide 68.0011]	7.08	–	–	–	–	–	–	–	–	–	–	–	–	–
CC[C@H](C)[C@H](NC(=O)[C@H](CS)NC(=O)[C@H](Cc1c[nH]cn1)NC(=O)[C@H](C)NC(=O)[C@H](C)NC(=O)[C@@H](NC(=O)[C@H](CC(C)C)NC(=O)[C@@H](NC(=O)[C@H](Cc1c[nH]c2ccccc12)NC(=O)[C@H](CCC(N)=O)NC(=O)[C@@H]1CCCN1C(=O)[C@@H](N)Cc1c[nH]cn1)C(C)C)[C@@H](C)O)C(=O)N[C@@H](CCCNC(=N)N)C(=O)N[C@@H](CC(N)=O)C(=O)N[C@@H](CCCCN)C(=O)O [Peptide 68.0064]	5.24	–	–	–	–	–	–	–	–	–	–	–	–	–
CSCC[C@H](NC(=O)[C@H](CC(C)C)NC(=O)[C@H](CC(=O)O)NC(=O)[C@@H](N)Cc1c[nH]cn1)C(=O)N[C@@H](CC(C)C)C(=O)N[C@@H](CC(C)C)C(=O)N[C@@H](CCCNC(=N)N)C(=O)N[C@@H](CC(C)C)C(=O)N[C@@H](CO)C(=O)N[C@@H](CCC(=O)O)C(=O)N1CCC[C@H]1C(=O)N[C@@H](C)C(=O)N[C@@H](CCC(=O)O)C(=O)N[C@@H](CC(C)C)C(=O)N[C@H](C(=O)O)[C@@H](C)O [Peptide 68.0073]	6.28	–	–	–	–	–	–	–	–	–	–	–	–	–
CC[C@H](C)[C@H](NC(=O)[C@H](CCC(N)=O)NC(=O)[C@@H](NC(=O)[C@H](Cc1ccccc1)NC(=O)[C@H](CC(N)=O)NC(=O)[C@H](Cc1ccc(O)cc1)NC(=O)[C@H](CC(C)C)NC(=O)[C@H](Cc1ccccc1)NC(=O)[C@@H](N)CCCCN)[C@@H](C)O)C(=O)N1CCC[C@H]1C(=O)N[C@@H](Cc1c[nH]cn1)C(=O)N[C@@H](CC(C)C)C(=O)N[C@@H](C)C(=O)NCC(=O)N[C@H](C(=O)O)[C@@H](C)O [Peptide 68.0087]	5.91	–	–	–	–	–	–	–	–	–	–	–	–	–
CSCC[C@H](NC(=O)[C@H](CC(C)C)NC(=O)[C@@H]1CCCN1C(=O)[C@@H](NC(=O)[C@@H](N)CS)[C@@H](C)O)C(=O)N[C@@H](Cc1ccc(O)cc1)C(=O)N[C@@H](CO)C(=O)N[C@@H](CC(C)C)C(=O)N[C@H](C(=O)N[C@@H](Cc1c[nH]cn1)C(=O)N[C@@H](CC(N)=O)C(=O)N[C@@H](CC(C)C)C(=O)N[C@H](C(=O)N[C@@H](CCCCN)C(=O)N[C@@H](CCC(=O)O)C(=O)O)[C@@H](C)O)C(C)C [Peptide 68.0113]	5.76	–	–	–	–	–	–	–	–	–	–	–	–	–
CSCC[C@H](NC(=O)[C@H](CC(C)C)NC(=O)[C@H](CCC(N)=O)NC(=O)[C@H](CC(=O)O)NC(=O)[C@H](CC(N)=O)NC(=O)[C@H](CCSC)NC(=O)[C@H](CCSC)NC(=O)[C@H](CCCNC(=N)N)NC(=O)[C@H](CC(C)C)NC(=O)[C@@H](N)C(C)C)C(=O)N[C@@H](Cc1ccccc1)C(=O)N[C@@H](CC(C)C)C(=O)N[C@@H](CCC(=O)O)C(=O)N[C@@H](CCCNC(=N)N)C(=O)N[C@@H](C)C(=O)O [Peptide 68.0130]	7.01	–	–	–	–	–	–	–	–	–	–	–	–	–
LKRFLQGIPKKNCIL [Peptide 89.0016]	–	7.16	6.03	< 4.70	< 4.70	5.48	5.12	< 4.70	5.44	5.77	5.59	8.26	–	–
LKTVKIPNTVQVIQG [Peptide 90.0017]	–	5.09	< 4.70	6.11	4.72	< 4.70	< 4.70	7.48	< 4.70	< 4.70	< 4.70	< 4.70	–	–
LSQVKIPKTITVSTG [Peptide 89.0158]	–	5.35	6.43	5.23	< 4.70	< 4.70	5.26	< 4.70	5.72	< 4.70	5.44	< 4.70	–	–
LVQIKCPPLLITTNI [Peptide 89.0138]	–	< 4.70	< 4.70	< 4.70	< 4.70	< 4.70	< 4.70	< 4.70	< 4.70	7.74	–	–	< 4.70	< 4.70
NHQVVPALSVSKAKA [Peptide 89.0168]	–	< 4.70	6.02	< 4.70	< 4.70	< 4.70	< 4.70	6.05	5.13	< 4.70	< 4.70	< 4.70	–	–
NSIFDFGEMVQWAYD [Peptide 89.0106]	–	5.31	5.28	5.22	< 4.70	< 4.70	< 4.70	6.27	5.00	5.40	< 4.70	< 4.70	–	–
QQQMFLGTVKIPPTV [Peptide 89.0187]	–	6.13	7.15	< 4.70	5.20	5.14	< 4.70	5.48	6.00	5.80	5.23	< 4.70	–	–
RNLVDGNPISLDRKH [Peptide 89.0137]	–	4.95	5.98	5.13	< 4.70	< 4.70	< 4.70	< 4.70	< 4.70	6.00	–	–	< 4.70	< 4.70
RQHLANHPAATHTKA [Peptide 89.0155]	–	< 4.70	< 4.70	< 4.70	< 4.70	< 4.70	< 4.70	6.06	5.06	< 4.70	4.80	< 4.70	–	–
SQLLNIPETHMVIEP [Peptide 89.0102]	–	< 4.70	< 4.70	< 4.70	< 4.70	< 4.70	< 4.70	< 4.70	< 4.70	6.09	< 4.70	< 4.70	–	–
